Source: patent US20150030667A1, “COMPOSITIONS AND METHODS FOR TREATING U[…]” (priority 2013, published 2015)

Tested on: bladder (detrusor) contractility of BoNT treated rats
Conditions: rat, in vivo

CN(C)C(=O)Oc1cccc([N+](C)(C)C)c1 [neostigmine]
amplitude of contraction: raised
baseline pressure: without affecting baseline pressure
contractility: improves contractility
duration of contraction: significant increase
duration of voiding contraction: increase
interval between bladder contractions: decrease
